From patent US20220402862A1 (Intellia Therapeutics, Inc., priority 2019, published 2022)
Where “and” joins values, the source holds several entries; their conditions need not be identical. Equal values may be shown once.

Key:
[1] = tested on: Transthyretin (TTR); experiment: Serum TTR ELISA in mice after LNP dosing; assay type: in vivo, CD-1 female mice
Method in brief: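 Female CD-1 mice, 6–10 weeks, given LNPs by tail-vein injection (~10 mL/kg), 0.1 mg/kg unless noted; serum taken at day 6 or 7 by cardiac puncture. Total mouse TTR by ELISA on sera diluted 10,000-fold (0.1 mg/kg) or 10,000- and 2,500-fold (0.3 mg/kg).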

[2] = tested on: mouse TTR gene; experiment: In vivo editing in mouse liver, sgRNA targeting TTR (G282 or G502), % indel by NGS; set-up: species or system CD-1 female mice
Method in brief: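 Female CD-1 mice, 6–10 weeks, given a single i.v. tail-vein dose of LNPs carrying Cas9 mRNA plus TTR sgRNA (G282 or G502), at several dose levels. Liver collected at 6 or 7 days; percent indels = reads with insertions or deletions over total reads, by amplicon NGS.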

[3] = tested on: Transthyretin (TTR); experiment: Serum TTR measurement in rats after LNP dosing; assay type: in vivo, Sprague Dawley female rats; conditions: Experiment 109; for Serum TTR % TSS: rat serum TTR relative to TSS control; for Serum TTR: rat serum, G534 sgRNA + Cas9 mRNA LNP
[4] = tested on: mouse B2M gene; experiment: In vivo editing in mouse liver, sgRNA targeting B2M (G650), % indel by NGS; set-up: species or system CD-1 female mice; conditions: for Editing Mean % Indel: mouse liver, guide G650, Experiment 104; for Liver editing (%): mouse, experiment 108
Procedure: CD-1 female mice ranging from 6-10 weeks of age were used in each study. Animals were weighed and grouped according to body weight for preparing dosing solutions based on group average weight. LNPs were dosed via the lateral tail vein in a volume of 0.2 mL per animal (approximately 10 mL per kilogram body weight). The animals were periodically observed for adverse effects for at least 24 hours post dose. For studies measuring in vivo editing in liver, CD-1 female mice were dosed at 0.1 mg/kg unless otherwise noted. Animals were euthanized at 6 or 7 days by ex sanguination via cardiac puncture under isoflurane anesthesia. Liver tissue was collected from each animal for DNA extraction and analysis. Blood was collected into serum separator tubes or into tubes containing buffered sodium citrate for plasma as described herein. Cohorts of mice were measured for editing by Next-Generation Sequencing (NGS).
(§1) In brief, to quantitatively determine the efficiency of editing at the target location in the genome, genomic DNA was isolated and deep sequencing was utilized to identify the presence of insertions and deletions introduced by gene editing.
(§2) PCR primers were designed around the target site (e.g., within B2M), and the genomic area of interest was amplified. Additional PCR was performed according to the manufacturer's protocols (Illumina) to add the necessary chemistry for sequencing. The amplicons were sequenced on an Illumina MiSeq instrument. The reads were aligned to the mouse or rat reference genome (e.g., GRCm38) after eliminating those having low quality scores. The resulting files containing the reads were mapped to the reference genome (BAM files), where reads that overlapped the target region of interest were selected and the number of wild type reads versus the number of reads which contain an insertion, substitution, or deletion was calculated.
(§3) The editing percentage (e.g., the “indel efficiency” or “percent indels”) was defined as the total number of sequence reads with insertions or deletions over the total number of sequence reads, including wild type.
We assessed in vivo editing efficiency for materials delivered with formulations including various amine lipid compounds. Editing was measured using either G282 (SEQ ID No: 1) which targets the mouse TTR gene or G650 (SEQ ID No. 2) which targets the mouse B2M gene. Lipids described above were assessed for efficacy through in vivo editing experiments. LNPs were formulated at a 1:1 or 1:1.3 w/w ratio of sgRNA to Cas9 mRNA, and at an N/P ratio of about 6. Molar concentrations of lipids in the lipid component of the LNPs are used at mol % amine lipid/DSPC/cholesterol/PEG-2k-DMG of 50/9/38/3. The final LNPs were characterized to determine the encapsulation efficiency, polydispersity index, and average particle size according to the analytical methods provided above. Analysis of average particle size, polydispersity (PDI), total RNA content and encapsulation efficiency of RNA are shown in Table 2.
Alternatively, Cas9 mRNA of Example 120 was formulated as LNPs with an sgRNA targeting B2M (G650, SEQ ID NO: 2) These LNPs were formulated at a w/w ratio of a sgRNA and Cas9 mRNA as indicated in Table 4. The LNPs were formulated using the cross flow procedure with lipid molar compositions of mol % amine lipid/DSPC/cholesterol/PEG-2k-DMG of 50/9/38/3 and an N/P ratio of 6.0. […]
CD-1 female mice were dosed i.v. at 0.1, 0.3, or 1 mg/kg and assessed for editing in liver, spleen, and bone marrow.

[5] = tested on: mouse B2M gene; experiment: In vivo editing in mouse bone marrow, G650 sgRNA, % indel by NGS; set-up: species or system CD-1 female mice; conditions: G650, i.v. dose 1 mg/kg, experiment 108
Procedure: [Worded in the source for another target; this target is reported under the same test.] as §1, §2, §3
The in vivo delivery to liver, spleen, and bone marrow was assessed by measuring editing efficiency for materials delivered with formulations including various amine lipid compounds. […]

[6] = mouse serum TTR relative to TSS control, guide G282 experiments
[7] = mouse serum, guide G282 experiments, ELISA
[8] = mouse, LNP i.v. 0.03 mg/kg, guide G502, Experiment 105
[9] = mouse, LNP i.v. 0.03 mg/kg, guide G502, Experiment 105, relative to TSS control
[10] = mouse, LNP i.v. 0.1 mg/kg, guide G502, Experiment 105
[11] = mouse, LNP i.v. 0.1 mg/kg, guide G502, Experiment 105, relative to TSS control
[12] = LNP i.v. 0.03 mg/kg, guide G502, Experiment 105
[13] = LNP i.v. 0.1 mg/kg, guide G502, Experiment 105
[14] = mouse, LNP i.v. 0.1 mg/kg, guide G282, Experiments 101-103
[15] = mouse, LNP i.v. 0.1 mg/kg, guide G282, Experiments 101-103, relative to TSS control
[16] = mouse, LNP i.v. 0.3 mg/kg, guide G282, Experiments 101-103
[17] = mouse, LNP i.v. 0.3 mg/kg, guide G282, Experiments 101-103, relative to TSS control
[18] = LNP i.v. 0.1 mg/kg, guide G282, Experiments 101-103
[19] = LNP i.v. 0.3 mg/kg, guide G282, Experiments 101-103

| Structure (SMILES) | Serum TTR % TSS [1, 6] | Serum TTR [1, 7] | Serum TTR [1, 8] | Serum TTR % TSS [1, 9] | Serum TTR [1, 10] | Serum TTR % TSS [1, 11] | Editing Mean % Indel [2, 12] | Editing Mean % Indel [2, 13] | Serum TTR % TSS ([3]; G534, i.v. 0.1 mg/kg) | Serum TTR % TSS ([3]; G534, i.v. 0.3 mg/kg) | Serum TTR ([3]; i.v. 0.1 mg/kg) | Serum TTR ([3]; i.v. 0.3 mg/kg) | Editing Mean % Indel ([4]; LNP i.v. 0.1 mg/kg) | Editing Mean % Indel ([4]; LNP i.v. 0.3 mg/kg) | Serum TTR [1, 14] | Serum TTR % TSS [1, 15] | Serum TTR [1, 16] | Serum TTR % TSS [1, 17] | Editing Mean % Indel [2, 18] | Editing Mean % Indel [2, 19] | further results |
| --- | --- | --- | --- | --- | --- | --- | --- | --- | --- | --- | --- | --- | --- | --- | --- | --- | --- | --- | --- | --- | --- |
| CCCCCCCCCC(C)OC(=O)CCCCCCCC(=O)OCC(COC(=O)CCC(OCCCCCCCC)OCCCCCCCC)COC(=O)OCCCN(CC)CC (stereo not drawn) [Compound 94, 1-(344,4-bis(octyloxy)butanoyl)oxy)-2-((((3-(diethylamino)propoxy)carbonyl)oxy)methyl)propyl) 9-(undecan-2-yl) nonanedioate] | 38% | 286 µg/mL | 605 µg/mL | 55% | 352 µg/mL | 32% | 19.76% | 43.52% | 39.5 % TSS | 8.2 % TSS | 639.5 µg/mL | 132.9 µg/mL | – | – | – | – | – | – | – | – | – |
| CCCCC/C=C\C/C=C\CCCCCCCC(=O)OCC(COC(=O)CCC(OCCCCCCCC)OCCCCCCCC)COC(=O)OCCCN(CC)CC (stereo not drawn) [Compound 1, 3-((4,4-bis(octyloxy)butanoyl)oxy)-2-((((3-(diethylamino)propoxy)carbonyl)oxy)methyl)propyl (9Z,12Z)-octadeca-9,12-dienoate, reference compound] | – | – | 931 µg/mL | 85% | 294 µg/mL | 27% | 9.24% | 47.62% | 56.6 % TSS | 7.1 % TSS | 916.9 µg/mL | 114.3 µg/mL | 17.8% | 50.3% | – | – | – | – | – | – | Serum TTR % TSS ([1]; mouse serum TTR relative to TSS control, guide G502, i.v. 0.1 mg/kg, 0.1 mg/kg): 53.7% and 37.8%; Serum TTR ([1]; mouse serum, guide G502, i.v. 0.1 mg/kg, 0.1 mg/kg): 593.76 µg/mL and 442 µg/mL; Serum TTR % TSS ([1]; mouse, LNP i.v. 0.1 mg/kg, guide G282, Experiments 101-103, relative to TSS control, 0.1 mg/kg): 79% and 54% and 76%; Serum TTR % TSS ([1]; mouse, LNP i.v. 0.3 mg/kg, guide G282, Experiments 101-103, relative to TSS control, 0.3 mg/kg): 20% and 13%; Liver editing (%) ([4]; G650, i.v. dose 0.1 mg/kg): 23.74%; Liver editing (%) ([4]; G650, i.v. dose 0.3 mg/kg): 58.48%; Liver editing (%) ([4]; G650, i.v. dose 1 mg/kg): 73.6%; % Editing in BM [5]: 2.66% |
| CCCCC/C=C\C/C=C\CCCCCCCC(=O)OCC(COC(=O)CCC(OCCCCCCCC)OCCCCCCCC)COC(=O)OCC1CCCN(C)C1 (stereo not drawn) [Compound 53, 3-((4,4-bis(octyloxy)butanoyl)oxy)-2-(((((1-methylpiperidin-3-yl)methoxy)carbonyl)oxy)methyl)propyl (9Z,12Z)-octadeca-9,12-dienoate] | 47% | 413 µg/mL | – | – | – | – | – | – | – | – | – | – | – | – | 619 µg/mL | 67% | 231 µg/mL | 25% | 8.6% | 48.2% | – |
| CCCCCCCCCCOC(=O)CCCCCCCC(=O)OCC(COC(=O)CCC(OCCCCCCCC)OCCCCCCCC)COC(=O)OCCCN(CC)CC (stereo not drawn) [Compound 59, 1-(3-((4,4-bis(octyloxy)butanoyl)oxy)-2-((((3-(diethylamino)propoxy)carbonyl)oxy)methyl)propyl) 9-decyl nonanedioate] | 40% and 57% and 66% | 367 µg/mL and 431 µg/mL and 604 µg/mL | 909 µg/mL | 83% | 467 µg/mL | 42% | 11.8% | 35.64% | 69.4 % TSS | 20.9 % TSS | 1124.0 µg/mL | 337.9 µg/mL | 21.2% | 51.6% | 300 µg/mL | 49% | 43 µg/mL | 7% | 32.4% | 63.9% | – |
| CCCCC/C=C\C/C=C\CCCCCCCC(=O)OCC(COC(=O)CCC(OCCCCCCCC)OCCCCCCCC)COC(=O)NCC1CCCN1CC (stereo not drawn) [Compound 40, 3-((4,4-bis(octyloxy)butanoyl)oxy)-2-(((((1-ethylpyrrolidin-2-yl)methyl)carbamoyl)oxy)methyl)propyl (9Z,12Z)-octadeca-9,12-dienoate] | 44% | 393 µg/mL | – | – | – | – | – | – | – | – | – | – | – | – | 443 µg/mL | 48% | 80 µg/mL | 9% | 30.2% | 68.0% | – |
| CCCCC/C=C\C/C=C\CCCCCCCC(=O)OCC(COC(=O)CC12CC3CC(CC(C3)C1)C2)COC(=O)OCCCN(CC)CC (stereo not drawn) [Compound 107, 3-(2-((3 r,5 r, 7r)-adamantan-1-yl)acetoxy)-2-((((3-(diethylamino)propoxy)carbonyl)oxy)methyl)propyl (9Z,12Z)-octadeca-9,12-dienoate] | – | – | – | – | – | – | – | – | – | – | – | – | – | – | – | – | – | – | – | – | Liver editing (%) ([4]; G650, i.v. dose 0.1 mg/kg): 0.52%; Liver editing (%) ([4]; G650, i.v. dose 0.3 mg/kg): 1.04%; Liver editing (%) ([4]; G650, i.v. dose 1 mg/kg): 5.92%; % Editing in BM [5]: 0.32% |
